According to patent US10004701B2, “Methods and compositions for treating infection” (UNIVERSITY OF ROCHESTER, priority 2012, dated 2018):
Structures can show the parent of a compound that is named as a salt. Where two headings read alike, the source gives them in different places.

Tests used:
Assay in all cases: AK assay 384-well format, Prestwick library screening
E. coli = format: cell-based, Escherichia coli; conditions: Escherichia coli, 3 h, 50 μM final drug concentration
E. cloacae = format: cell-based, Enterobacter cloacae; conditions: Enterobacter cloacae, 3 h, 50 μM final drug concentration
K. pneumoniae = format: cell-based, Klebsiella pneumoniae; conditions: Klebsiella pneumoniae, 3 h, 50 μM final drug concentration
P. aeruginosa = format: cell-based, Pseudomonas aeruginosa; conditions: Pseudomonas aeruginosa, 3 h, 50 μM final drug concentration
[1] = test system: A. baumannii strain 98-37-09; format: cell-based, Acinetobacter baumannii; conditions: Acinetobacter baumannii, 983709, 3 h, 50 μM final drug concentration
[2] = test system: S. aureus strain USA300-0114; format: cell-based, Staphylococcus aureus; conditions: Staphylococcus aureus, USA300, 3 h, 50 μM final drug concentration
E. faecium = format: cell-based, Enterococcus faecium; conditions: Enterococcus faecium, 3 h, 50 μM final drug concentration
[3] = cutoff for positive-scoring molecules 3-fold increase, read-out: AK-based Prestwick Library Screening Results, E. coli (fold increase in extracellular AK activity)
[4] = cutoff for positive-scoring molecules 3-fold increase, read-out: AK-based Prestwick Library Screening Results, E. cloacae (fold increase in extracellular AK activity)
[5] = cutoff for positive-scoring molecules 3-fold increase, read-out: AK-based Prestwick Library Screening Results, K. pneumoniae (fold increase in extracellular AK activity)
[6] = cutoff for positive-scoring molecules 3-fold increase, read-out: AK-based Prestwick Library Screening Results, P. aeruginosa (fold increase in extracellular AK activity)
[7] = cutoff for positive-scoring molecules 3-fold increase, read-out: AK-based Prestwick Library Screening Results, A. baumannii (fold increase in extracellular AK activity)
[8] = cutoff for positive-scoring molecules 3-fold increase, read-out: AK-based Prestwick Library Screening Results, S. aureus (fold increase in extracellular AK activity)
[9] = cutoff for positive-scoring molecules 3-fold increase, read-out: AK-based Prestwick Library Screening Results, E. faecium (fold increase in extracellular AK activity)
[10] = planktonic E. coli, cutoff for positive-scoring molecules 3-fold increase, read-out: AK-based Prestwick Library Screening Results, E. coli (increase in extracellular AK activity)
[11] = planktonic E. cloacae, cutoff for positive-scoring molecules 3-fold increase, read-out: AK-based Prestwick Library Screening Results, E. cloacae (increase in extracellular AK activity)
[12] = planktonic K. pneumoniae, cutoff for positive-scoring molecules 3-fold increase, read-out: AK-based Prestwick Library Screening Results, K. pneumoniae (increase in extracellular AK activity)
[13] = planktonic P. aeruginosa, cutoff for positive-scoring molecules 3-fold increase, read-out: AK-based Prestwick Library Screening Results, P. aeruginosa (increase in extracellular AK activity)
[14] = planktonic A. baumannii, cutoff for positive-scoring molecules 3-fold increase, read-out: AK-based Prestwick Library Screening Results, A. baumannii (increase in extracellular AK activity)
[15] = planktonic S. aureus, cutoff for positive-scoring molecules 3-fold increase, read-out: AK-based Prestwick Library Screening Results, S. aureus (increase in extracellular AK activity)
[16] = planktonic E. faecium, cutoff for positive-scoring molecules 3-fold increase, read-out: AK-based Prestwick Library Screening Results, E. faecium (increase in extracellular AK activity)

## CC(C)NCC(O)COc1ccc(COCCOC(C)C)cc1 (stereo not drawn) [Bisoprolol fumarate]
E. coli; planktonic E. coli, 384-well, cutoff for positive-scoring molecules 3-fold increase, read-out: AK-based Prestwick Library Screening Results: E. coli (increase in extracellular AK activity)
  fold induction at 50 µM: 0.5
E. cloacae; planktonic E. cloacae, 384-well, cutoff for positive-scoring molecules 3-fold increase, read-out: AK-based Prestwick Library Screening Results: E. cloacae (increase in extracellular AK activity)
  fold induction at 50 µM: 0.6
K. pneumoniae; planktonic K. pneumoniae, 384-well, cutoff for positive-scoring molecules 3-fold increase, read-out: AK-based Prestwick Library Screening Results: K. pneumoniae (increase in extracellular AK activity)
  fold induction at 50 µM: 0.5
P. aeruginosa; planktonic P. aeruginosa, 384-well, cutoff for positive-scoring molecules 3-fold increase, read-out: AK-based Prestwick Library Screening Results: P. aeruginosa (increase in extracellular AK activity)
  fold induction at 50 µM: 0.5
[1]; planktonic A. baumannii, 384-well, cutoff for positive-scoring molecules 3-fold increase, read-out: AK-based Prestwick Library Screening Results: A. baumannii (increase in extracellular AK activity)
  fold induction at 50 µM: 0.5
[2]; planktonic S. aureus, 384-well, cutoff for positive-scoring molecules 3-fold increase, read-out: AK-based Prestwick Library Screening Results: S. aureus (increase in extracellular AK activity)
  fold induction at 50 µM: 0.6
E. faecium; planktonic E. faecium, 384-well, cutoff for positive-scoring molecules 3-fold increase, read-out: AK-based Prestwick Library Screening Results: E. faecium (increase in extracellular AK activity)
  fold induction at 50 µM: 0.9

## COc1cc2c(cc1O)C[C@H]1c3c(cc(O)c(OC)c3-2)CCN1C [Boldine]
E. coli; planktonic E. coli, […], read-out: AK-based Prestwick Library Screening Results, E. coli (increase in extracellular AK activity)
  fold induction at 50 µM: 0.9
E. cloacae; planktonic E. cloacae, […], read-out: AK-based Prestwick Library Screening Results, E. cloacae (increase in extracellular AK activity)
  fold induction at 50 µM: 1.2
K. pneumoniae; planktonic K. pneumoniae, […], read-out: AK-based Prestwick Library Screening Results, K. pneumoniae (increase in extracellular AK activity)
  fold induction at 50 µM: 0.7
P. aeruginosa; planktonic P. aeruginosa, […], read-out: AK-based Prestwick Library Screening Results, P. aeruginosa (increase in extracellular AK activity)
  fold induction at 50 µM: 0.9
[1]; planktonic A. baumannii, […], read-out: AK-based Prestwick Library Screening Results, A. baumannii (increase in extracellular AK activity)
  fold induction at 50 µM: 0.8
[2]; planktonic S. aureus, […], read-out: AK-based Prestwick Library Screening Results, S. aureus (increase in extracellular AK activity)
  fold induction at 50 µM: 0.8
E. faecium; planktonic E. faecium, […], read-out: AK-based Prestwick Library Screening Results, E. faecium (increase in extracellular AK activity)
  fold induction at 50 µM: 0.9

## CC[N+](C)(C)Cc1ccccc1Br [Bretylium tosylate]
E. coli; [3]
  fold induction at 50 µM: 1.3
E. cloacae; [4]
  fold induction at 50 µM: 1.6
K. pneumoniae; [5]
  fold induction at 50 µM: 1.1
P. aeruginosa; [6]
  fold induction at 50 µM: 1.2
[1]; [7]
  fold induction at 50 µM: 1.3
[2]; [8]
  fold induction at 50 µM: 1.3
E. faecium; [9]
  fold induction at 50 µM: 1

## CCN[C@H]1CN(CCCOC)S(=O)(=O)c2sc(S(N)(=O)=O)cc21 [Brinzolamide]
E. coli; [10]
  fold induction at 50 µM: 1.1
E. cloacae; [11]
  fold induction at 50 µM: 1.5
K. pneumoniae; [12]
  fold induction at 50 µM: 0.9
P. aeruginosa; [13]
  fold induction at 50 µM: 1.1
[1]; [14]
  fold induction at 50 µM: 1.1
[2]; [15]
  fold induction at 50 µM: 1
E. faecium; [16]
  fold induction at 50 µM: 1.4

## CCN(CC)CCNC(=O)c1cc(Br)c(N)cc1OC [Bromopride]
E. coli; [3]
  fold induction at 50 µM: 1.3
E. cloacae; [4]
  fold induction at 50 µM: 1.3
K. pneumoniae; [5]
  fold induction at 50 µM: 1
P. aeruginosa; [6]
  fold induction at 50 µM: 1.1
[1]; [7]
  fold induction at 50 µM: 1.3
[2]; [8]
  fold induction at 50 µM: 1.3
E. faecium; [9]
  fold induction at 50 µM: 0.9

## O=C(CCCN1CCC(O)(c2ccc(Br)cc2)CC1)c1ccc(F)cc1 [Bromperidol]
E. coli; [10]
  fold induction at 50 µM: 0.8
E. cloacae; [11]
  fold induction at 50 µM: 1.1
K. pneumoniae; [12]
  fold induction at 50 µM: 0.7
P. aeruginosa; [13]
  fold induction at 50 µM: 1.1
[1]; [14]
  fold induction at 50 µM: 1
[2]; [15]
  fold induction at 50 µM: 0.7
E. faecium; [16]
  fold induction at 50 µM: 0.9

## CN(C)CCC(c1ccc(Br)cc1)c1ccccn1 (stereo not drawn) [Brompheniramine maleate]
E. coli; planktonic, cutoff for positive 3-fold increase, read-out: AK-based Prestwick Library Screening Results, E. coli (fold increase in extracellular AK activity)
  fold induction at 50 µM: 1.4
E. cloacae; planktonic, cutoff for positive 3-fold increase, read-out: AK-based Prestwick Library Screening Results, E. cloacae (fold increase in extracellular AK activity)
  fold induction at 50 µM: 2
K. pneumoniae; planktonic, cutoff for positive 3-fold increase, read-out: AK-based Prestwick Library Screening Results, K. pneumoniae (fold increase in extracellular AK activity)
  fold induction at 50 µM: 1.1
P. aeruginosa; planktonic, cutoff for positive 3-fold increase, read-out: AK-based Prestwick Library Screening Results, P. aeruginosa (fold increase in extracellular AK activity)
  fold induction at 50 µM: 1.1
[1]; planktonic, cutoff for positive 3-fold increase, read-out: AK-based Prestwick Library Screening Results, A. baumannii (fold increase in extracellular AK activity)
  fold induction at 50 µM: 1.2
[2]; planktonic, cutoff for positive 3-fold increase, read-out: AK-based Prestwick Library Screening Results, S. aureus (fold increase in extracellular AK activity)
  fold induction at 50 µM: 1.1
E. faecium; planktonic, cutoff for positive 3-fold increase, read-out: AK-based Prestwick Library Screening Results, E. faecium (fold increase in extracellular AK activity)
  fold induction at 50 µM: 1

## CCCC(=O)Nc1ncnc2c1ncn2[C@@H]1O[C@@H]2COP(=O)(O)O[C@H]2[C@H]1OC(=O)CCC [Bucladesine sodium salt]
E. coli; planktonic, cutoff for positive-scoring molecules 3-fold increase, read-out: AK-based Prestwick Library Screening Results, E. coli (fold increase in extracellular AK activity)
  fold induction at 50 µM: 0.7
E. cloacae; planktonic, cutoff for positive-scoring molecules 3-fold increase, read-out: AK-based Prestwick Library Screening Results, E. cloacae (fold increase in extracellular AK activity)
  fold induction at 50 µM: 0.9
K. pneumoniae; planktonic, cutoff for positive-scoring molecules 3-fold increase, read-out: AK-based Prestwick Library Screening Results, K. pneumoniae (fold increase in extracellular AK activity)
  fold induction at 50 µM: 0.6
P. aeruginosa; planktonic, cutoff for positive-scoring molecules 3-fold increase, read-out: AK-based Prestwick Library Screening Results, P. aeruginosa (fold increase in extracellular AK activity)
  fold induction at 50 µM: 0.8
[1]; planktonic, cutoff for positive-scoring molecules 3-fold increase, read-out: AK-based Prestwick Library Screening Results, A. baumannii (fold increase in extracellular AK activity)
  fold induction at 50 µM: 0.8
[2]; planktonic, cutoff for positive-scoring molecules 3-fold increase, read-out: AK-based Prestwick Library Screening Results, S. aureus (fold increase in extracellular AK activity)
  fold induction at 50 µM: 0.7
E. faecium; planktonic, cutoff for positive-scoring molecules 3-fold increase, read-out: AK-based Prestwick Library Screening Results, E. faecium (fold increase in extracellular AK activity)
  fold induction at 50 µM: 0.9

## CCCC1O[C@@H]2C[C@H]3[C@@H]4CCC5=CC(=O)C=C[C@]5(C)[C@H]4[C@@H](O)C[C@]3(C)[C@]2(C(=O)CO)O1 (stereo partly drawn) [Budesonide]
E. coli; [10]
  fold induction at 50 µM: 0.9
E. cloacae; [11]
  fold induction at 50 µM: 1.4
K. pneumoniae; [12]
  fold induction at 50 µM: 0.7
P. aeruginosa; [13]
  fold induction at 50 µM: 0.9
[1]; [14]
  fold induction at 50 µM: 0.9
[2]; [15]
  fold induction at 50 µM: 0.6
E. faecium; [16]
  fold induction at 50 µM: 0.9
